Data as given in US9127016B2, “Small molecule inhibitors of Dusp6 and uses therefor” (University of Pittsburgh—Of the Commonwealth System of …, priority 2009, dated 2015).

Experiments:
Cdc25B = target: T1, Cdc25B (Homo sapiens, UniProt P30305); test: OMFP phosphatase assay, Cdc25B; type: biochemical; settings: n=3, OMFP substrate, 15.2 nM-300 μM; read-out: mean in vitro values, Cdc25B
T1 sequence (P30305 1-580): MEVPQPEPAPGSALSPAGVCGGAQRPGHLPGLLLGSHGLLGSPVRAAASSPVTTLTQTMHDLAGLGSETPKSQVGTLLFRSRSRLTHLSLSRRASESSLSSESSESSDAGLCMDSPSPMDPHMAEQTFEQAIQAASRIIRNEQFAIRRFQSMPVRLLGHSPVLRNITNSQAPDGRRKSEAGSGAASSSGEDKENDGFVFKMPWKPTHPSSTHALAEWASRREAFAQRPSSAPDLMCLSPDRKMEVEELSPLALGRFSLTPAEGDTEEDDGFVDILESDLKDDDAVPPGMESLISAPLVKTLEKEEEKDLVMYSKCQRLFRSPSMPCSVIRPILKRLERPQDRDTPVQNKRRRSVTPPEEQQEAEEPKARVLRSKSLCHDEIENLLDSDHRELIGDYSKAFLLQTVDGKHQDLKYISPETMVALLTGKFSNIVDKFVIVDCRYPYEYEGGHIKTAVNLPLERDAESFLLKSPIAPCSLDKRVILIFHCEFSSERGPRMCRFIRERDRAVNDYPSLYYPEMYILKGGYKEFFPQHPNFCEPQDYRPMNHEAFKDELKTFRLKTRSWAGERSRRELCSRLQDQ
Method: Enzyme activities in the presence or absence of BCI were measured using the artificial substrate […] at concentrations equal to the Km of each enzyme (Cdc25B, PTP1B & Dusp3/VHR) and at optimal pH for individual enzyme activity in a 96-well microtiter plate assay based on previously described methods by Lazo et al. (J Med Chem 44, 4042-9 (2001) and Lazo, J. S. et al. Bioorg Med Chem 14, 5643-50 (2006)). Briefly, the standard assay conditions contained 0.02 mg/ml OMFP in assay buffer (30 mM Tris-HCl (pH8.0), 75 mM NaCl, 1 mM EDTA, 0.33% BSA and 1 mM DTT). Fluorescence emission was measured after a sixty-minute incubation period at ambient temperature using a multiwell plate reader (SpectraMax m5, […]; excitation 485 nm, emission 525 nm). Sodium orthovanadate (100 μM) was used as a positive control for full phosphatase inhibition. IC50 concentrations were determined from three experiments using 10 concentrations of BCI ranging from 300 μM to 15.2 nM and GraphPad Prism 5.0 software.

Dusp6 = target: T2, Dusp6 (Homo sapiens, UniProt Q16828); test: Basal Dusp6 dephosphorylation of OMFP; type: biochemical; design: His; made in house; settings: 100 μM
T2 sequence (Q16828 1-381): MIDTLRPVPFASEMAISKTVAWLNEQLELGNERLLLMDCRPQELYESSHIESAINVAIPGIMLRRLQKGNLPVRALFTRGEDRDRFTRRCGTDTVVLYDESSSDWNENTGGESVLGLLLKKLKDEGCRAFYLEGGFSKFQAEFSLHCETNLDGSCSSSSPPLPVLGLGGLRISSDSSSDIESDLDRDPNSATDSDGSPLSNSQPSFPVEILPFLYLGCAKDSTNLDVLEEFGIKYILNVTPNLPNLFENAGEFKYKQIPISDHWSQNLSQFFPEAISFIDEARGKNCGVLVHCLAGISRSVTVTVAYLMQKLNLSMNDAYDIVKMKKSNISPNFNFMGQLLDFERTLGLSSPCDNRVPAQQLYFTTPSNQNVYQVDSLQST
Method: For OMFP based ERK2 induced activation of Dusp6, recombinant His-tagged Dusp6 was expressed from a bacterial expression vector and 250 ng were incubated with the indicated concentrations of NSC95397 or BCI. OMFP was added at its apparent Km (100 μM) (Vogt, A. et al. J Biol Chem 280, 19078-86 (2005)). The final reaction volume was 15 μl. After 1 h at RT, OMF fluorescence was measured on an M5 multimode reader (Molecular Devices) at excitation/emission wavelengths of 485/525 nm. To assay activated Dusp6, 210 ng or 2.1 μg of recombinant ERK2 (Cell signaling) were added to Dusp6(210 ng)/BCI(100 μM) mixtures to measure activation at 1:1 and 1:10 ratio of substrate to enzyme. OMFP was immediately added and fluorescence (ex485/em525 nm) was read every 10 min for 130 min. Fold activation was calculated at 60 mins in each experiment.

**Q.** With `O=C1/C(=C/c2ccccc2)C(NC2CCCCC2)c2ccccc21` (centres unmarked) [Compound 3, (E)-2-benzylidene-3-(cyclohexylamino)-2,3-dihydro-1H-inden-1-one] as the molecule, how does the IC50 (Cdc25B) read?
**A.** > 300 µM

**Q.** And the “inhibition of basal Dusp6 activity toward OMFP” value (Dusp6)?
**A.** did not inhibit basal Dusp6 activity
